For data set [1], the system named is HL-60 cells. In words: in vitro cytotoxicity against growth of human leukemic HL-60 cells. Format: cell-based. To be noted: read-out: IC50 for cell growth inhibition, HL-60. As for the experimental part:
(§1) The in vitro cytotoxicity of the N-[3-(acridin-9-yl)amino-5-hydroxymethyl]phenylcarbamate derivatives of the invention against growth of human leukemic HL-60 cells and 833K tumor cells, and the chemotherapeutic effects of ethyl N-[3-(acridin-9-yl)amino-5-hydroxymethyl]phenylcarbamate on Sarcoma 180 and Lewis lung carcinoma tumor bearing B6 D2 F1 mice were evaluated. The compound 3-(acridin-9-yl)amino-5-hydroxymethylaniline (AHMA) was also evaluated for comparison.
(§2) The in vitro cytotoxicity against growth of human
(§3) leukemic HL-60 cells and 833K tumor cells.

Data set [2] concerns 833K tumor cells. In words: in vitro cytotoxicity against growth of 833K tumor cells. Format: cell-based. To be noted: Homo sapiens, read-out: IC50 for cell growth inhibition, 833K. As for the experimental part:
as §1, §2, §3

For data set [3], the system named is Sarcoma 180. In words: chemotherapeutic effect on Sarcoma 180 tumor bearing B6 D2 F1 mice. Format: in vivo. To be noted: for Average Tumor Volume (T/C), Day 7 / Average Weight Change, Day 7: QD × 5, day 7.
Text: Sarcoma 180 (3 × 10^6 cells) innoculated subcutaneously
(s.c.) on day 0. Treatment started on day 1, peritoneal injection (i.p.),
In data set [4] the test system is Lewis lung carcinoma. Nature of the data set: chemotherapeutic effect on Lewis lung carcinoma tumor bearing B6 D2 F1 mice. Format: in vivo. To be noted: for Average Weight Change, Day 7 / Average Weight Change, Day 10: mouse, in vivo, ip. Here is the method: as §1
The chemotherapeutic effects on Sarcoma 180 and
Lewis lung carcinoma tumor bearing B6 D2 F1 mice.^a […]
carcinoma (4 × […] cells) inoculated s.c. on day (-2).
Treatment started on day 1, i.p., QD × 5. Control had 4 mice and
each dose had 3 mice. Tumor sizes were evaluated on day 7 and day 10.

The conditions of data set [5]: mouse, in vivo; cited from earlier work.
For data set [6] the following is noted: 37° C.; cited from earlier work.
The conditions of data set [7]: mouse and rat; GSH conjugates; cited from earlier work.
For data set [8] the following is noted: longer than m-AMSA; cited from earlier work.
Data set [9] relates to murine leukemia and solid tumors (a mammary adenocarcinoma, B-16 melanoma and Lewis lung carcinoma). To be noted: cited from earlier work.
For data set [10], the system named is leukemia and several solid tumors. To be noted: against growth of leukemia and several solid tumors, in vitro and in vivo; cited from earlier work.
Setting [11] is: Lewis lung carcinoma, 3.0 mg/kg i.p., QD × 5.
[12] abbreviates: Lewis lung carcinoma, 6.0 mg/kg i.p., QD × 5.

Broadly, the IC50 is the concentration that gives 50% inhibition.

As to `CCOC(=O)Nc1cc(CO)cc(Nc2c3ccccc3nc3ccccc23)c1` [compound 2, ethyl N-[3-(acridin-9-yl)amino-5-hydroxymethyl]phenylcarbamate], the results for the half-maximal inhibitory concentration (IC50) in data set [1] and in data set [2] were 16 nM and 20 nM, respectively. Also, the “Average Tumor Volume (T/C), Day 7” value in data set [3] (3.0 mg/kg i.p.) was 1.24; in data set [3] (5.0 mg/kg i.p.) it was 0.06; in data set [3] (7.0 mg/kg i.p.), 0.22; in [4] (setting [11]), 0.8; in data set [4] (setting [12]), 0.44; in [4] (Lewis lung carcinoma, 8.0 mg/kg i.p., QD × 5), 0.21. Moreover, the “Average Weight Change, Day 7” value in data set [3] (3.0 mg/kg i.p.) was -2.0 gm; in data set [3] (5.0 mg/kg i.p.), -2.6 gm; in [3] (7.0 mg/kg i.p.), -3.4 gm; in data set [4] (3 mg/kg) it was -2.3 gm; in [4] (6 mg/kg), -3 gm; in [4] (8 mg/kg), -3.6 gm. For the same compound, the “Average Tumor Volume (T/C), Day 10” value in data set [3] (3.0 mg/kg i.p., QD × 5, day 10) is 1.21; in [3] (5.0 mg/kg i.p., QD × 5, day 10), 0.63; in data set [3] (7.0 mg/kg i.p., QD × 5, day 10), less than 0.01; in [4] (setting [11]), 0.63; in data set [4] (setting [12]), 0.37. Also, the “Average Weight Change, Day 10” value in data set [3] (3.0 mg/kg i.p., QD × 5, day 10) was -0.7 gm; in data set [3] (5.0 mg/kg i.p., QD × 5, day 10) it was “+1.0 gm”; in [3] (7.0 mg/kg i.p., QD × 5, day 10), -0.1 gm; in data set [4] (3 mg/kg), -1.3 gm; in data set [4] (6 mg/kg), -2.6 gm. Besides, the “Tumor detectability (footnote b)” value in [3] (7.0 mg/kg i.p., QD × 5, day 10) is on record as “Tumor not detectable”. Further, the “Mortality (footnote c)” value in data set [4] (Lewis lung carcinoma, 8.0 mg/kg i.p., QD × 5, 3 mice) was “One mouse died on day 8 and two mice died on day 9”.
On to `CNC(=O)c1cccc2c(Nc3ccc(NS(C)(=O)=O)cc3OC)c3cccc(C)c3nc12` [CI-921], for which the “metabolites detected in addition to the 5'- and 6'-GSH conjugates” value in data set [5] is “two other metabolites, namely C9-GSH and the 4-hydroxymethyl derivatives of CI-921, were detected”.
On to `CC(C)COC(=O)Nc1cc(CO)cc(Nc2c3ccccc3nc3ccccc23)c1` [compound 3, i-butyl N-[3-(acridin-9-yl)amino-5-hydroxymethyl]phenylcarbamate], for which the IC50 in data set [1] worked out at 18 nM; in data set [2], 21 nM.
Taken in the same sequence, the figures for `CNC(=O)c1cccc2c(Nc3cc(N)cc(CO)c3)c3cccc(C)c3nc12` [compound 4, 3-(5-methyl-4-methylamino-carbonylacridin-9-yl)amino-5-hydroxymethylaniline] were 144 nM and 244 nM.
For `CCOC(=O)Nc1cc(CO)cc(Nc2c3cccc(C)c3nc3c(C(=O)NC)cccc23)c1` [compound 5, ethyl N-[3-(4-methylaminocarbonyl-5-methylacridin-9-yl)amino-5-hydroxymethyl]phenylcarbamate] the same measures were 83 nM and 34 nM.
As for `COc1cc(NS(C)(=O)=O)ccc1Nc1c2ccccc2nc2ccccc12` [m-AMSA, 4'-(9-acridinylamino)methanesulfon-m-anisidine], the “half-life in the presence of fresh mouse blood” value in data set [6] is reported as “ca. 30 min”. The major biliary metabolites result in data set [7] was “the major biliary metabolites of this agent were the 5'- and 6'-glutathione (GSH) conjugates, with no C9-GSH conjugate being found”. In data set [5], the “dose excreted as the glutathione conjugate in the bile” value is “More than 50%”.
With `Nc1cc(CO)cc(Nc2c3ccccc3nc3ccccc23)c1` [compound 1, 3-(acridin-9-yl)amino-5-hydroxymethylaniline], in data set [1], the IC50 came to 25 nM. For the same compound, in data set [8], the plasma half-life is given as 1.5 h. Moreover, the “toxicity toward the host compared with m-AMSA and VP-16” value in data set [9] (mouse, in vivo) was “less toxic toward the host”. Besides, the “antitumor efficacy compared with m-AMSA and VP-16” value in data set [9] (murine leukemia and solid tumors) is “greater efficacy against murine leukemia and solid tumors (a mammary adenocarcinoma, B-16 melanoma and Lewis lung carcinoma) than m-AMSA and VP-16”. Further, the antitumor activity entry in [10] is “potent antitumor activity against growth of leukemia and several solid tumors both in vitro and in vivo with long half-life”.
